# Experiments:
# HAP1 MTAP-deleted = assay: SDMA in-cell western assay, HAP1 MTAP-deleted cell line; type: cell-based; conditions: for IC50: Homo sapiens, HAP1 MTAP-deleted cell line; for MTAP Intact/Deleted Ratio: IC50 ratio HAP1 MTAP-intact / HAP1 MTAP-deleted
# How it was run: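 MTAP-null HAP1 cells, the deleted member of an isogenic pair with endogenously MTAP-expressing HAP1, are treated with compound. SDMA is then quantified by in-cell western and an IC50 is calculated.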
# PRMT5 [1] = molecular target: T1, PRMT5 (Homo sapiens, UniProt O14744); assay: PRMT5 IC50 assay with no cofactor; type: biochemical
# T1 construct: purchased Viva (custom protein)
# T1 sequence (O14744 whole entry): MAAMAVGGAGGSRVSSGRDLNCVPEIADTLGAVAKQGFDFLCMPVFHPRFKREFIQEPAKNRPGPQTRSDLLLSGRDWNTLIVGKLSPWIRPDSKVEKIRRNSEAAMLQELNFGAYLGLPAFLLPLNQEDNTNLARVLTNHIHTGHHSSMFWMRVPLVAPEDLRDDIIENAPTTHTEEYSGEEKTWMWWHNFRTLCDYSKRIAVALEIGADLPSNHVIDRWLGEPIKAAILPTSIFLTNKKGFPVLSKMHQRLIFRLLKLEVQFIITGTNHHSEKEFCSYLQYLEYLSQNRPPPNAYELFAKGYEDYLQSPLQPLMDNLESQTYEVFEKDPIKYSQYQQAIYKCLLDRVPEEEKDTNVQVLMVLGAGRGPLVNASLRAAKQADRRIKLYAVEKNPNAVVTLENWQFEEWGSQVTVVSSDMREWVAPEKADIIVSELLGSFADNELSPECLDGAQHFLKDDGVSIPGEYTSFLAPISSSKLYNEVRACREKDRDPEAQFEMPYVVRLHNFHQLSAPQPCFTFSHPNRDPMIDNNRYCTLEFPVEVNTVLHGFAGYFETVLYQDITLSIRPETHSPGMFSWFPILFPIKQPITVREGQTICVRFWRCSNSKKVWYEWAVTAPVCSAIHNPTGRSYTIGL
# T1 sequence (Q9BQA1 whole entry partner): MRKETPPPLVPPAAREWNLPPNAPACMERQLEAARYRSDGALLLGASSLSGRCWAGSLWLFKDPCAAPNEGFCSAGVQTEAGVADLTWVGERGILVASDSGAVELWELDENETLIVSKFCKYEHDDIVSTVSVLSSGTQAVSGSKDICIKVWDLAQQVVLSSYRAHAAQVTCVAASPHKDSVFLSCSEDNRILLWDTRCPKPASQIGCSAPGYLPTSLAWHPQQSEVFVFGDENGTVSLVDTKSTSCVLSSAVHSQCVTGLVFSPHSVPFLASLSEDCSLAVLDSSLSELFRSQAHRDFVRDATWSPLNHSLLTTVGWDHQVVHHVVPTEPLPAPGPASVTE
# How it was run: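 Results given as IC50 (μM), from which Ki follows by dividing by 1.5 in the SAM condition or by 13.5 in the MTA condition. The ratio of SAM Ki to MTA Ki indicates MTA-cooperative preference.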
# PRMT5 [2] = molecular target: T1, PRMT5; assay: PRMT5 IC50 assay in the presence of SAM as cofactor; type: biochemical
# How it was run: (§1)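 Each compound is tested on PRMT5 in the presence of SAM, of MTA, and without any cofactor. Ki values are then back-calculated using fixed factors of 1.5 (SAM) and 13.5 (MTA), and the two Ki values are compared as a ratio.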
# PRMT5 [3] = molecular target: T1, PRMT5; assay: PRMT5 IC50 assay in the presence of MTA as cofactor; type: biochemical; conditions: for IC50: PRMT5, MTA as cofactor
# How it was run: as §1
# HAP1 MTAP-intact = assay: SDMA in-cell western assay, HAP1 MTAP-intact cell line; type: cell-based; conditions: Homo sapiens
# How it was run: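 Cells from two matched HAP1 lines, MTAP-null and MTAP-expressing at endogenous levels, are treated with compound. SDMA is then quantified by in-cell western and an IC50 is calculated for each line.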
# [4] = ratio between Ki in the presence of SAM and Ki in the presence of MTA
# [5] = ratio between the Ki in the presence of SAM and the Ki in the presence of MTA
Structure (SMILES),IC50 (HAP1 MTAP-deleted),MTAP Intact/Deleted Ratio (HAP1 MTAP-deleted),IC50 (PRMT5 [1]; read-out: No Co-factor IC50),IC50 (PRMT5 [2]),IC50 (PRMT5 [3]),SAM/MTA Ratio (PRMT5 [3]; [4]),IC50 (HAP1 MTAP-intact),IC50 (PRMT5 [1]),SAM/MTA Ratio (PRMT5 [3]; [5])
"COCCN(C)c1nc(NC2COC2)cc(C(=O)NC[C@H](O)CN2CCc3cc(OCc4cnco4)ccc3C2)n1 [Compound 295, (S)—N-(2-hydroxy-3-(6-(oxazol-5-ylmethoxy)-3N-dihydroisoquinolin-2(1H)-yl)propyl)-2-((2-methoxyethyl)(methyl)amino)-6-(oxetan-3-ylamino)pyrimidine-4-carboxamide]",< 1000 nM,C* (an IC50 ratio of less than 3 fold between the IC50 in the HAP1 MTAP-intact cell line and the HAP1 MTAP-deleted cell line),500 to 5000 nM,50 to 500 nM,50 to 500 nM,A (a Ki ratio greater than or equal to 10 fold between the Ki in the presence of SAM and the Ki in the presence of MTA),< 1000 nM,,
"CC(=O)N1CCC(Nc2cc(C(=O)NC[C@H](O)CN3CCc4c(ccc(OCc5cnn[nH]5)c4Cl)C3)ncn2)CC1 [Compound 343, 6-[(1-acetyl-4-piperidyl)amino]-N-[(2S)-3-[5-chloro-6-(1H-triazol-5-ylmethoxy)-3,4-dihydro-1H-isoquinolin-2-yl]-2-hydroxy-propyl]pyrimidine-4-carboxamide]",1000 to 10000 nM,C* (an IC50 ratio of less than 3 fold between the IC50 in the HAP1 MTAP-intact cell line and the HAP1 MTAP-deleted cell line),≥ 5000 nM,500 to 5000 nM,500 to 5000 nM,A (a Ki ratio greater than or equal to 10 fold between the Ki in the presence of SAM and the Ki in the presence of MTA),≥ 10000 nM,,
"CCC(=O)N1CCN(c2cc(C(=O)NC[C@H](O)CN3CCc4c(ccc(OCc5ocnc5C)c4C)C3)cc(NC3CCC3)n2)CC1 [Compound 417, 2-(cyclobutylamino)-N-[(2S)-2-hydroxy-3-{5-methyl-6-[(4-methyl-1,3-oxazol-5-yl)methoxy]-1,2,3,4-tetrahydroisoquinolin-2-yl}propyl]-6-(4-propanoylpiperazin-1-yl)pyridine-4-carboxamide]",< 1000 nM,A* (an IC50 ratio greater than or equal to 10 fold between the IC50 in the HAP1 MTAP-intact cell line and the HAP1 MTAP-deleted cell line),500 to 5000 nM,50 to 500 nM,50 to 500 nM,A (a Ki ratio greater than or equal to 10 fold between the Ki in the presence of SAM and the Ki in the presence of MTA),≥ 10000 nM,,
"CCCN(C)c1cc(C(=O)NC[C@H](O)CN2CCc3c(ccc(OCc4ocnc4C)c3C)C2)cc(NC2CCC2)n1 [Compound 480, 2-(cyclobutylamino)-N-[(2S)-2-hydroxy-3-{5-methyl-6-[(4-methyl-1,3-oxazol-5-yl)methoxy]-1,2,3,4-tetrahydroisoquinolin-2-yl}propyl]-6-[methyl(propyl)amino]pyridine-4-carboxamide]",≥ 10000 nM,C* (an IC50 ratio of less than 3 fold between the IC50 in the HAP1 MTAP-intact cell line and the HAP1 MTAP-deleted cell line),,50 to 500 nM,50 to 500 nM,,≥ 10000 nM,≥ 5000 nM,A (a Ki ratio greater than or equal to 10 fold between the Ki in the presence of SAM and the Ki in the presence of MTA)
"Cc1nocc1COc1ccc2c(c1C)CCN(C[C@@H](O)CNC(=O)c1ccnc(NC3CCC3)c1)C2 [Compound 263, 2-(cyclobutylamino)-N-[(2S)-2-hydroxy-3-[5-methyl-6-[(3-methylisoxazol-4-yl)methoxy]-3,4-dihydro-1H-isoquinolin-2-yl]propyl]pyridine-4-carboxamide]",≥ 10000 nM,C* (an IC50 ratio of less than 3 fold between the IC50 in the HAP1 MTAP-intact cell line and the HAP1 MTAP-deleted cell line),≥ 5000 nM,500 to 5000 nM,500 to 5000 nM,A (a Ki ratio greater than or equal to 10 fold between the Ki in the presence of SAM and the Ki in the presence of MTA),≥ 10000 nM,,
"CN1CCN(c2nc(NC3COC3)cc(C(=O)NC[C@H](O)CN3CCc4c(ccc(OCc5cnco5)c4Cl)C3)n2)CC1 [Compound 285, (S)—N-(3-(5-chloro-6-(oxazol-5-ylmethoxy)-3,4-dihydroisoquinolin-2(1H)-yl)-2-hydroxypropyl)-2-(4-methylpiperazin-1-yl)-6-(oxetan-3-ylamino)pyrimidine-4-carboxamide]",1000 to 10000 nM,C* (an IC50 ratio of less than 3 fold between the IC50 in the HAP1 MTAP-intact cell line and the HAP1 MTAP-deleted cell line),500 to 5000 nM,50 to 500 nM,50 to 500 nM,A (a Ki ratio greater than or equal to 10 fold between the Ki in the presence of SAM and the Ki in the presence of MTA),≥ 10000 nM,,
"CC(=O)N1CCC(Nc2cc(C(=O)NC[C@H](O)CN3CCc4cc(OCc5ocnc5C)ccc4C3)ncn2)CC1 [Compound 219, (S)-6-((1-acetylpiperidin-4-yl)amino)-N-(2-hydroxy-3-(6-((4-methyloxazol-5-yl)methoxy)-3,4-dihydroisoquinolin-2(1H)-yl)propyl)pyrimidine-4-carboxamide]",< 1000 nM,B* (an IC50 ratio greater than or equal to 3 fold but lower than 10 fold between the IC50 in the HAP1 MTAP-intact cell line and the HAP1 MTAP-deleted cell line),≥ 5000 nM,50 to 500 nM,50 to 500 nM,A (a Ki ratio greater than or equal to 10 fold between the Ki in the presence of SAM and the Ki in the presence of MTA),1000 to 10000 nM,,
"CC(=O)N1CCC(Nc2cc(C(=O)NC[C@H](O)CN3CCc4c(ccc(OCc5ocnc5C)c4C)C3)ncn2)CC1 [Compound 274, (S)-6-((1-acetylpiperidin-4-yl)amino)-N-(2-hydroxy-3-(5-methyl-6-((4-methyloxazol-5-yl)methoxy)-3,4-dihydroisoquinolin-2(1H)-yl)propyl)pyrimidine-4-carboxamide]",1000 to 10000 nM,C* (an IC50 ratio of less than 3 fold between the IC50 in the HAP1 MTAP-intact cell line and the HAP1 MTAP-deleted cell line),≥ 5000 nM,50 to 500 nM,50 to 500 nM,A (a Ki ratio greater than or equal to 10 fold between the Ki in the presence of SAM and the Ki in the presence of MTA),≥ 10000 nM,,
"O=C(NC[C@H](O)CN1CCc2c(ccc(OCc3cnco3)c2Cl)C1)c1ccnc(NC2CCC(F)(F)CC2)c1 [Compound 425, (S)—N-(3-(5-chloro-6-(oxazol-5-ylmethoxy)-3,4-dihydroisoquinolin-2(1H)-yl)-2-hydroxypropyl)-2-((4N-difluorocyclohexyl)amino)isonicotinamide]",≥ 10000 nM,C* (an IC50 ratio of less than 3 fold between the IC50 in the HAP1 MTAP-intact cell line and the HAP1 MTAP-deleted cell line),≥ 5000 nM,50 to 500 nM,50 to 500 nM,A (a Ki ratio greater than or equal to 10 fold between the Ki in the presence of SAM and the Ki in the presence of MTA),≥ 10000 nM,,
CC(=O)N1CC(Nc2cc(C(=O)NC[C@H](O)CN3CCc4cc(OCc5cnco5)ccc4C3)nc(N3CCOCC3)n2)C1 [Compound 583],1000 to 10000 nM,C* (an IC50 ratio of less than 3 fold between the IC50 in the HAP1 MTAP-intact cell line and the HAP1 MTAP-deleted cell line),,50 to 500 nM,50 to 500 nM,,≥ 10000 nM,500 to 5000 nM,A (a Ki ratio greater than or equal to 10 fold between the Ki in the presence of SAM and the Ki in the presence of MTA)
"O=C(NC[C@H](O)CN1CCc2cc(OCc3cnco3)ccc2C1)c1ccnc(NC2CN(C(=O)C3CCC3)C2)c1 [Compound 468, 2-[[1-(cyclobutanecarbonyl)azetidin-3-yl]amino]-N-[(2S)-2-hydroxy-3-[6-(oxazol-5-ylmethoxy)-3,4-dihydro-1H-isoquinolin-2-yl]propyl]pyridine-4-carboxamide]",1000 to 10000 nM,B* (an IC50 ratio greater than or equal to 3 fold but lower than 10 fold between the IC50 in the HAP1 MTAP-intact cell line and the HAP1 MTAP-deleted cell line),,50 to 500 nM,50 to 500 nM,,1000 to 10000 nM,500 to 5000 nM,A (a Ki ratio greater than or equal to 10 fold between the Ki in the presence of SAM and the Ki in the presence of MTA)
"O=C(NC[C@H](O)CN1CCc2cc(OCc3cnco3)ccc2C1)c1cccc(NC2CCC2)c1 [Compound 259, (S)-3-(cyclobutylamino)-N-(2-hydroxy-3-(6-(oxazol-5-ylmethoxy)-3,4-dihydroisoquinolin 2(1H)-yl)propyl)benzamide]",< 1000 nM,C* (an IC50 ratio of less than 3 fold between the IC50 in the HAP1 MTAP-intact cell line and the HAP1 MTAP-deleted cell line),≥ 5000 nM,500 to 5000 nM,500 to 5000 nM,A (a Ki ratio greater than or equal to 10 fold between the Ki in the presence of SAM and the Ki in the presence of MTA),< 1000 nM,,
